Data on 52 molecules can be found in patent publication US7671054B1, “Reverse-turn mimetics and method relating thereto” (Choongwae Pharma Corporation, priority 2001, dated 2010).

This test concerns TCF4/β-catenin transcription (TOPFlash) in SW480 cells. Put plainly: Reporter gene assay (TOPFlash luciferase). The test is classed as cell-based. The settings on record: Homo sapiens, SW480, Table 4; Reporter gene assay as described in Example 6; read-out: IC50. As to the method: SW480 cells were transfected with the usage of Superfect™ transfect reagent (Qiagen, 301307). Cells were trypsinized briefly 1 day before transfection and plated on 6 well plate (5×10^5 cells/well) so that they were 50-80% confluent on the day of transfection.
Four microgram (TOPFlash) and one microgram (pRL-null) of DNAs were diluted in 150 μl of serum-free medium, and 30 μl of Superfect™ transfect reagent was added. The DNA-Superfect mixture was incubated at room temperature for 15 min, and then, 1 ml of 10% FBS DMEM was added to this complex for an additional 3 hours of incubation. While complexes were forming, cells were washed with PBS twice without antibiotics.
The DNA-Superfect™ transfect reagent complexes were applied to the cells before incubating at 37° C. at 5% CO2 for 3 hours. After incubation, recovery medium with 10% FBS was added to bring the final volume to 1.18 ml. After 3 hours incubation, the cells were harvested and reseeded to 96 well plate (3×10^4 cells/well). After overnight incubation at 37° C. at 5% CO2, the cells were treated with Compound A for 24 hours. Finally, the activity was checked by means of luciferase assay (Promega, E1960).
The IC50 is the concentration that inhibits the measured activity by half. Turning to `C=CCN1CC(=O)N2C(CN(Cc3cccc(N(C)C)c3)C(=O)[C@@H]2Cc2ccc(O)cc2)N1C(=O)NCc1ccccc1` (single isomer, unassigned) [Compound 192], the IC50 was determined as 1.3 ± 0.3 µM. Regarding `Cc1ccc(CC2C(=O)N(CCc3ccccc3)CC3N2C(=O)CN(C)N3C(=O)Nc2ccc(C(F)(F)F)cc2)cc1` (stereo not shown) [Compound 2], the IC50 worked out at 12.6 µM.

As to `CN1CC(=O)N2C(Cc3ccc(O)cc3)C(=O)N(Cc3cccc4ccccc34)CC2N1C(=O)NCc1ccc(Cl)c(Cl)c1` (stereo not shown) [Compound 3], the IC50 is 13.9 µM.

For the molecule `CN1CC(=O)N2[C@@H](Cc3ccc(O)cc3)C(=O)N(Cc3cccc4ccccc34)C[C@@H]2N1C(=O)Nc1ccc(C(F)(F)F)cc1` [Compound 4], the IC50 worked out at 11.8 µM. As for `CN1CC(=O)N2C(CN(Cc3ccccc3F)C(=O)[C@@H]2Cc2ccc(O)cc2)N1C(=O)NCc1ccccc1` (stereo partly shown) [Compound 8], the IC50 worked out at 14.5 µM. Turning to `CN1CC(=O)N2C(CN(Cc3cccc(F)c3)C(=O)[C@@H]2Cc2ccc(O)cc2)N1C(=O)NCc1ccccc1` (stereo partly shown) [Compound 9], the half-inhibitory concentration (IC50) is 6.7 µM. For the molecule `CN1CC(=O)N2C(CN(Cc3ccc(F)cc3)C(=O)[C@@H]2Cc2ccc(O)cc2)N1C(=O)NCc1ccccc1` (stereo partly shown) [Compound 10], the IC50 amounted to 4 µM. As to `CN1CC(=O)N2C(CN(Cc3ccc(F)cc3F)C(=O)[C@@H]2Cc2ccc(O)cc2)N1C(=O)NCc1ccccc1` (stereo partly shown) [Compound 13], the IC50 was determined as 6.4 µM. As to `CN1CC(=O)N2C(CN(Cc3cc(F)ccc3F)C(=O)[C@@H]2Cc2ccc(O)cc2)N1C(=O)NCc1ccccc1` (stereo partly shown) [Compound 14], the IC50 came out at 17.7 µM. As for `CN1CC(=O)N2C(CN(Cc3cccc(C(F)(F)F)c3)C(=O)[C@@H]2Cc2ccc(O)cc2)N1C(=O)NCc1ccccc1` (stereo partly shown) [Compound 15], the IC50 is 4.2 µM. For `CN1CC(=O)N2C(CN(Cc3ccccc3Cl)C(=O)[C@@H]2Cc2ccc(O)cc2)N1C(=O)NCc1ccccc1` (stereo partly shown) [Compound 17], the IC50 stood at 14.3 µM. Then `CN1CC(=O)N2C(CN(Cc3cccc(Cl)c3)C(=O)[C@@H]2Cc2ccc(O)cc2)N1C(=O)NCc1ccccc1` (stereo partly shown) [Compound 18], with 3.3 µM; and `CN1CC(=O)N2C(CN(Cc3ccc(Cl)cc3Cl)C(=O)[C@@H]2Cc2ccc(O)cc2)N1C(=O)NCc1ccccc1` (stereo partly shown) [Compound 19], with 11.5 µM. Turning to `C[C@H](c1ccccc1)N1CC2N(C(=O)CN(C)N2C(=O)NCc2ccccc2)[C@@H](Cc2ccc(O)cc2)C1=O` (stereo partly shown) [Compound 20], the half-maximal inhibitory concentration (IC50) was determined as 5.1 µM. As to `COc1ccc(CN2CC3N(C(=O)CN(C)N3C(=O)NCc3ccccc3)[C@@H](Cc3ccc(O)cc3)C2=O)cc1` (stereo partly shown) [Compound 22], the IC50 turned out to be 10.4 µM. On to `COc1cccc(CN2CC3N(C(=O)CN(C)N3C(=O)NCc3ccccc3)[C@@H](Cc3ccc(O)cc3)C2=O)c1OC` (stereo partly shown) [Compound 23], for which the IC50 amounted to 10.7 µM. `CN1CC(=O)N2[C@@H](Cc3ccc(O)cc3)C(=O)N(Cc3ccc4ccccc4c3)C[C@@H]2N1C(=O)NCc1ccccc1` [Compound 24]: the IC50 was 5 µM. On to `CN1CC(=O)N2[C@@H](Cc3ccc(O)cc3)C(=O)N(Cc3ccc(F)c4ccccc34)C[C@@H]2N1C(=O)NCc1ccccc1` [Compound 25], for which the IC50 was 3 µM.

For the molecule `COc1ccccc1CN1C[C@H]2N(C(=O)CN(C)N2C(=O)NCc2ccccc2)[C@@H](Cc2ccc(O)cc2)C1=O` [Compound 26], the IC50 came out at 7.1 µM. Take `CN1CC(=O)N2[C@@H](Cc3ccc(O)cc3)C(=O)N(Cc3ccc(Cl)cc3)C[C@@H]2N1C(=O)NCc1ccccc1` [Compound 28]: the concentration for half-maximal inhibition (IC50) came out at 7.5 µM. Then `CN1CC(=O)N2[C@@H](Cc3ccc(O)cc3)C(=O)N(Cc3ccc(Cl)c(Cl)c3)C[C@@H]2N1C(=O)NCc1ccccc1` [Compound 29], with 3.8 µM; and `CN1CC(=O)N2[C@@H](Cc3ccc(O)cc3)C(=O)N(Cc3ccccc3OC(F)(F)F)C[C@@H]2N1C(=O)NCc1ccccc1` [Compound 30], with 7.5 µM; and `CN1CC(=O)N2[C@@H](Cc3ccc(O)cc3)C(=O)N(Cc3ccccc3SC(F)(F)F)C[C@@H]2N1C(=O)NCc1ccccc1` [Compound 31], with 11.9 µM. Next, `CN1CC(=O)N2[C@@H](Cc3ccc(O)cc3)C(=O)N(Cc3ccccc3C(F)(F)F)C[C@@H]2N1C(=O)NCc1ccccc1` [Compound 32]: 4.1 µM; `CN1CC(=O)N2[C@@H](Cc3ccc(O)cc3)C(=O)N(Cc3cccc4ncccc34)C[C@@H]2N1C(=O)NCc1ccccc1` [Compound 33]: 13 µM.

Consider `CN1CC(=O)N2[C@@H](Cc3ccc(O)cc3)C(=O)N(Cc3cccc4nccnc34)C[C@@H]2N1C(=O)NCc1ccccc1` [Compound 34], for which the IC50 worked out at 4.4 µM. Next, `CN1CC(=O)N2[C@@H](Cc3ccc(O)cc3)C(=O)N(Cc3cccc4ccccc34)C[C@@H]2N1C(=S)NCc1ccccc1` [Compound 35]: 11.4 µM; `CN1CC(=O)N2[C@@H](CN(Cc3cccc4ccccc34)C(=O)[C@H]2c2ccc(O)cc2)N1C(=O)NCc1ccccc1` [Compound 36]: 12.5 µM. As to `CC(c1ccc(F)cc1)N1C[C@H]2N(C(=O)CN(C)N2C(=O)NCc2ccccc2)[C@@H](Cc2ccc(O)cc2)C1=O` (stereo partly shown) [Compound 37], the IC50 was 2.3 µM. Take `CN(C)c1cccc(CN2C[C@H]3N(C(=O)CN(C)N3C(=O)NCc3ccccc3)[C@@H](Cc3ccc(O)cc3)C2=O)c1` [Compound 38]: the 50% inhibitory concentration (IC50) was 7.1 µM. In the case of `CN1CC(=O)N2[C@@H](Cc3ccc(O)cc3)C(=O)N(Cc3ccc4ccccc4n3)C[C@@H]2N1C(=O)NCc1ccccc1` [Compound 39], the IC50 turned out to be 9.7 µM. For `CN1CC(=O)N2[C@@H](Cc3ccc(O)cc3)C(=O)N(Cc3cccc4occc34)C[C@@H]2N1C(=O)NCc1ccccc1` [Compound 40], the IC50 was 7 µM. Next, `Cc1ccc([C@@H](C)N2C[C@H]3N(C(=O)CN(C)N3C(=O)NCc3ccccc3)[C@@H](Cc3ccc(O)cc3)C2=O)cc1` [Compound 41]: 13.6 µM; `CN(C)c1cccc(F)c1CN1C[C@H]2N(C(=O)CN(C)N2C(=O)NCc2ccccc2)[C@@H](Cc2ccc(O)cc2)C1=O` [Compound 42]: 18.2 µM; `CN(C)c1ccccc1CN1C[C@H]2N(C(=O)CN(C)N2C(=O)NCc2ccccc2)[C@@H](Cc2ccc(O)cc2)C1=O` [Compound 43]: 5.2 µM. With `CN1CC(=O)N2[C@@H](Cc3ccc(O)cc3)C(=O)N(Cc3ccc(F)cc3C(F)(F)F)C[C@@H]2N1C(=O)NCc1ccccc1` [Compound 44], the IC50 worked out at 1.3 µM. In the case of `CN(C)c1cc(Cl)ccc1CN1C[C@H]2N(C(=O)CN(C)N2C(=O)NCc2ccccc2)[C@@H](Cc2ccc(O)cc2)C1=O` [Compound 45], the IC50 came to 2.2 µM. `CCN(C)c1cccc(CN2C[C@H]3N(C(=O)CN(C)N3C(=O)NCc3ccccc3)[C@@H](Cc3ccc(O)cc3)C2=O)c1` [Compound 46]: the IC50 amounted to 4.4 µM. Consider `CCN(CC)c1cccc(CN2C[C@H]3N(C(=O)CN(C)N3C(=O)NCc3ccccc3)[C@@H](Cc3ccc(O)cc3)C2=O)c1` [Compound 47], for which the concentration for half-maximal inhibition (IC50) is 3.5 µM. Then `Cc1cccc(CN2C[C@H]3N(C(=O)CN(C)N3C(=O)NCc3ccccc3)[C@@H](Cc3ccc(O)cc3)C2=O)c1N(C)C` [Compound 48], with 10.9 µM; and `CN(C)c1cc(F)c(F)cc1CN1C[C@H]2N(C(=O)CN(C)N2C(=O)NCc2ccccc2)[C@@H](Cc2ccc(O)cc2)C1=O` [Compound 49], with 1.4 µM; and `CN(C)c1cc(F)ccc1CN1C[C@H]2N(C(=O)CN(C)N2C(=O)NCc2ccccc2)[C@@H](Cc2ccc(O)cc2)C1=O` [Compound 50], with 1.3 µM. Then `Cc1cc(C)c(N(C)C)c(CN2C[C@H]3N(C(=O)CN(C)N3C(=O)NCc3ccccc3)[C@@H](Cc3ccc(O)cc3)C2=O)c1` [Compound 51], with 4.8 µM; and `CN1CC(=O)N2[C@@H](Cc3ccc(OCC(=O)O)cc3)C(=O)N(Cc3cccc4ccccc34)C[C@@H]2N1C(=O)NCc1ccccc1` [Compound 52], with 25 µM. In the case of `CN(C1CC1)C1CC=CC=C1CN1C[C@H]2N(C(=O)CN(C)N2C(=O)NCc2ccccc2)[C@@H](Cc2ccc(O)cc2)C1=O` (stereo partly shown) [Compound 53], the IC50 came out at 9 ± 1.5 µM. Turning to `CC(C)N(C)c1cc(CN2C[C@H]3N(C(=O)CN(C)N3C(=O)NCc3ccccc3)[C@@H](Cc3ccc(O)cc3)C2=O)ccc1Cl` [Compound 54], the IC50 came out at 23.6 ± 5.6 µM.

Consider `CCCN(C)c1cccc(CN2C[C@H]3N(C(=O)CN(C)N3C(=O)NCc3ccccc3)[C@@H](Cc3ccc(O)cc3)C2=O)c1` [Compound 55], for which the IC50 was determined as 7.2 ± 1.4 µM. In the case of `CN1CC(=O)N2[C@@H](Cc3ccc(O)cc3)C(=O)N(Cc3cccc4c3cnn4C)C[C@@H]2N1C(=O)NCc1ccccc1` [Compound 56], the IC50 was found to be 9.3 ± 1.6 µM. Take `CN(c1cccc(CN2C[C@H]3N(C(=O)CN(C)N3C(=O)NCc3ccccc3)[C@@H](Cc3ccc(O)cc3)C2=O)c1)C1CC1` [Compound 57]: the concentration for half-maximal inhibition (IC50) is 9.4 ± 1.5 µM. Take `C[C@H](c1ccc(F)c(N(C)C)c1)N1C[C@H]2N(C(=O)CN(C)N2C(=O)NCc2ccccc2)[C@@H](Cc2ccc(O)cc2)C1=O` [Compound 59]: the IC50 came out at 5.3 ± 1.3 µM.

Consider `CC(c1cc(N(C)C)cc(C(F)(F)F)c1)N1C[C@H]2N(C(=O)CN(C)N2C(=O)NCc2ccccc2)[C@@H](Cc2ccc(O)cc2)C1=O` (stereo partly shown) [Compound 60], for which the IC50 amounted to 6.9 ± 1.7 µM. Regarding `C[C@H](c1cccc(N(C)C)c1)N1C[C@H]2N(C(=O)CN(C)N2C(=O)NCc2ccccc2)[C@@H](Cc2ccc(O)cc2)C1=O` [Compound 61], the IC50 was 25.8 µM.
